Measurements published in PubChem BioAssay (NCI).
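How tested: cells in 96-well plates exposed to compound for 48 hours at five concentrations. GI50: concentration for 50% inhibition of growth. The concentration for full growth arrest is given as TGI.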

Key:
Test in all cases: NCI anticancer screen, dose series, 48 h
OVCAR-5 ovarian = test system: OVCAR-5 ovarian
EKVX NSCLC = test system: EKVX NSCLC
HCT-116 colon = test system: HCT-116 colon
SK-MEL-28 melanoma = test system: SK-MEL-28 melanoma
M14 melanoma = test system: M14 melanoma
LOX IMVI melanoma = test system: LOX IMVI melanoma
NCI-H23 lung = test system: NCI-H23 lung
MOLT-4 leukemia = test system: MOLT-4 leukemia
BT-549 breast = test system: BT-549 breast
CCRF-CEM leukemia = test system: CCRF-CEM leukemia
SK-MEL-5 melanoma = test system: SK-MEL-5 melanoma
SW-620 colon = test system: SW-620 colon
RXF 393 renal = test system: RXF 393 renal
CAKI-1 renal = test system: CAKI-1 renal
T-47D breast = test system: T-47D breast
DU-145 prostate = test system: DU-145 prostate
SR leukemia = test system: SR leukemia
SK-OV-3 ovarian = test system: SK-OV-3 ovarian
HS 578T breast = test system: HS 578T breast
K-562 leukemia = test system: K-562 leukemia
SNB-19 CNS = test system: SNB-19 CNS
RPMI-8226 leukemia = test system: RPMI-8226 leukemia
MDA-MB-231 breast = test system: MDA-MB-231 breast
SN12C renal = test system: SN12C renal
HOP-92 NSCLC = test system: HOP-92 NSCLC
ACHN renal = test system: ACHN renal
SF-539 CNS = test system: SF-539 CNS
NCI-H226 lung = test system: NCI-H226 lung
HOP-62 NSCLC = test system: HOP-62 NSCLC
786-0 renal = test system: 786-0 renal
TK-10 renal = test system: TK-10 renal
UO-31 renal = test system: UO-31 renal
MDA-MB-468 breast = test system: MDA-MB-468 breast
MALME-3M melanoma = test system: MALME-3M melanoma
UACC-257 melanoma = test system: UACC-257 melanoma
HCT-15 colon = test system: HCT-15 colon
OVCAR-4 ovarian = test system: OVCAR-4 ovarian
OVCAR-8 ovarian = test system: OVCAR-8 ovarian
MDA-MB-435 = test system: MDA-MB-435
KM12 colon = test system: KM12 colon
SF-268 CNS = test system: SF-268 CNS
SK-MEL-2 melanoma = test system: SK-MEL-2 melanoma
OVCAR-3 ovarian = test system: OVCAR-3 ovarian
PC-3 prostate = test system: PC-3 prostate
NCI-H522 lung = test system: NCI-H522 lung
HCC-2998 colon = test system: HCC-2998 colon
SNB-75 CNS = test system: SNB-75 CNS
HT29 colon = test system: HT29 colon
NCI-H460 lung = test system: NCI-H460 lung
A498 renal = test system: A498 renal
U251 CNS = test system: U251 CNS
A549 NSCLC = test system: A549 NSCLC
UACC-62 melanoma = test system: UACC-62 melanoma
MCF7 breast = test system: MCF7 breast
IGROV1 ovarian = test system: IGROV1 ovarian
SF-295 CNS = test system: SF-295 CNS
HL-60(TB) leukemia = test system: HL-60(TB) leukemia
COLO 205 colon = test system: COLO 205 colon

CCCCOc1ccc(NC(=O)c2sc3nc(C)ccc3c2N)cc1
GI50 (OVCAR-5 ovarian): 4.61 µM
TGI (OVCAR-5 ovarian): 28.8 µM
GI50 (EKVX NSCLC): 2.17 µM
TGI (EKVX NSCLC): 14.7 µM
GI50 (HCT-116 colon): 2.28 µM
TGI (HCT-116 colon): 6.04 µM
GI50 (SK-MEL-28 melanoma): 12.2 µM
TGI (SK-MEL-28 melanoma): 29.8 µM
GI50 (M14 melanoma): 12.6 µM
TGI (M14 melanoma): 35.2 µM
GI50 (LOX IMVI melanoma): 2.36 µM
TGI (LOX IMVI melanoma): 6.68 µM
GI50 (NCI-H23 lung): 1.5 µM
TGI (NCI-H23 lung): 3.56 µM
GI50 (MOLT-4 leukemia): 7.46 µM
TGI (MOLT-4 leukemia): > 100 µM
GI50 (BT-549 breast): 2.56 µM
TGI (BT-549 breast): 10.2 µM
GI50 (CCRF-CEM leukemia): 54 µM
TGI (CCRF-CEM leukemia): > 100 µM
GI50 (SK-MEL-5 melanoma): 2 µM
TGI (SK-MEL-5 melanoma): 10.2 µM
GI50 (SW-620 colon): 11.4 µM
TGI (SW-620 colon): 31 µM
GI50 (RXF 393 renal): 2.98 µM
TGI (RXF 393 renal): 12.9 µM
GI50 (CAKI-1 renal): 3.47 µM
TGI (CAKI-1 renal): 16.7 µM
GI50 (T-47D breast): 2.82 µM
TGI (T-47D breast): 25.7 µM
GI50 (DU-145 prostate): 5.29 µM
TGI (DU-145 prostate): 36.1 µM
GI50 (SR leukemia): 3.3 µM
TGI (SR leukemia): > 100 µM
GI50 (SK-OV-3 ovarian): 6.36 µM
TGI (SK-OV-3 ovarian): 20 µM
GI50 (HS 578T breast): 5.97 µM
TGI (HS 578T breast): 38.7 µM
GI50 (K-562 leukemia): 2.85 µM
TGI (K-562 leukemia): > 100 µM
GI50 (SNB-19 CNS): 3.47 µM
TGI (SNB-19 CNS): 13.8 µM
GI50 (RPMI-8226 leukemia): 8.14 µM
TGI (RPMI-8226 leukemia): > 100 µM
GI50 (MDA-MB-231 breast): 2.93 µM
TGI (MDA-MB-231 breast): 10.6 µM
GI50 (SN12C renal): 4.09 µM
TGI (SN12C renal): 22.8 µM
GI50 (HOP-92 NSCLC): 5.71 µM
TGI (HOP-92 NSCLC): 22.8 µM
GI50 (ACHN renal): 2.72 µM
TGI (ACHN renal): 12.7 µM
GI50 (SF-539 CNS): 1.89 µM
TGI (SF-539 CNS): 3.77 µM
GI50 (NCI-H226 lung): 2.89 µM
TGI (NCI-H226 lung): 18.7 µM
GI50 (HOP-62 NSCLC): 10.6 µM
TGI (HOP-62 NSCLC): 28 µM
GI50 (786-0 renal): 1.86 µM
TGI (786-0 renal): 4.21 µM
GI50 (TK-10 renal): 5.57 µM
TGI (TK-10 renal): 20.4 µM
GI50 (UO-31 renal): 2.32 µM
TGI (UO-31 renal): 11.2 µM
GI50 (MDA-MB-468 breast): 1.23 µM
TGI (MDA-MB-468 breast): 3.29 µM
GI50 (MALME-3M melanoma): 5.31 µM
TGI (MALME-3M melanoma): 19.4 µM
GI50 (UACC-257 melanoma): 10 µM
TGI (UACC-257 melanoma): 44.6 µM
GI50 (HCT-15 colon): 3.87 µM
TGI (HCT-15 colon): 17.7 µM
GI50 (OVCAR-4 ovarian): 1.49 µM
TGI (OVCAR-4 ovarian): 5.97 µM
GI50 (OVCAR-8 ovarian): 2.61 µM
TGI (OVCAR-8 ovarian): 6.67 µM
GI50 (MDA-MB-435): 4.96 µM
TGI (MDA-MB-435): 22.1 µM
GI50 (KM12 colon): 3.96 µM
TGI (KM12 colon): 18.5 µM
GI50 (SF-268 CNS): 6.39 µM
TGI (SF-268 CNS): 29.9 µM
GI50 (SK-MEL-2 melanoma): 8.95 µM
TGI (SK-MEL-2 melanoma): 31.4 µM
GI50 (OVCAR-3 ovarian): 2.8 µM
TGI (OVCAR-3 ovarian): 8.65 µM
GI50 (PC-3 prostate): 7.74 µM
TGI (PC-3 prostate): > 100 µM
GI50 (NCI-H522 lung): 2.88 µM
TGI (NCI-H522 lung): 15.2 µM
GI50 (HCC-2998 colon): 4.73 µM
TGI (HCC-2998 colon): 20.6 µM
GI50 (SNB-75 CNS): 2.39 µM
TGI (SNB-75 CNS): 9.02 µM
GI50 (HT29 colon): 6.83 µM
TGI (HT29 colon): 26.3 µM
GI50 (NCI-H460 lung): 3.23 µM
TGI (NCI-H460 lung): 10.9 µM
GI50 (A498 renal): 14.9 µM
TGI (A498 renal): 28.5 µM
GI50 (U251 CNS): 3.41 µM
TGI (U251 CNS): 11.1 µM
GI50 (A549 NSCLC): 3.22 µM
TGI (A549 NSCLC): 9.73 µM
GI50 (UACC-62 melanoma): 6.89 µM
TGI (UACC-62 melanoma): 22.9 µM
GI50 (MCF7 breast): 3.07 µM
TGI (MCF7 breast): 16.4 µM
GI50 (IGROV1 ovarian): 4.1 µM
TGI (IGROV1 ovarian): 17.4 µM
GI50 (SF-295 CNS): 2.59 µM
TGI (SF-295 CNS): 10.3 µM
GI50 (HL-60(TB) leukemia): 49.9 µM
TGI (HL-60(TB) leukemia): > 100 µM
GI50 (COLO 205 colon): 19.3 µM
TGI (COLO 205 colon): 54.4 µM
